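Test compounds were applied to cells in 96-well plates for 48 hours at 5 doses. GI50 marks 50% less growth.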 Calls of active or inactive are those of the source. Rule as the data show it: active = GI50 up to about 1.1 µM and inactive = higher.
Legend:
Test in all cases: DTP human tumour cell line panel, 48 h
A549 = system: A549
BT-549 = system: BT-549
CCRF-CEM = system: CCRF-CEM
DU-145 = system: DU-145
HCC 2998 = system: HCC 2998
IGROV-1 = system: IGROV-1
K562 = system: K562
M14 = system: M14
MCF7 = system: MCF7
MDA-MB-231 = system: MDA-MB-231
MDA-N = system: MDA-N
MOLT-4 = system: MOLT-4
NCI/ADR-RES = system: NCI/ADR-RES
OVCAR-4 = system: OVCAR-4
SR = system: SR
T47D = system: T47D
HOP-62 = system: HOP-62
KM-20L2 = system: KM-20L2
LXFL 529 = system: LXFL 529
SNB-78 = system: SNB-78

Measured: GI50

NC(CCCCCP(=O)(c1ccccc1)C1C=CC=CC1)C(=O)O (stereo not given)
inactive: A549 > 100 µM | BT-549 > 100 µM | CCRF-CEM > 100 µM | DU-145 > 100 µM | HCC 2998 > 10 µM | IGROV-1 > 100 µM | K562 > 100 µM | M14 > 100 µM | MCF7 > 100 µM | MDA-MB-231 > 100 µM | MDA-N > 100 µM | MOLT-4 > 100 µM | NCI/ADR-RES > 100 µM | OVCAR-4 > 100 µM | SR > 100 µM | T47D 57.8 µM

CCOC(=O)C12CCC(=O)C=C1[C@@H](C)C(=O)CC2 (stereo not given in full)
inactive: HCC 2998 > 100 µM | HOP-62 > 100 µM | IGROV-1 > 100 µM | KM-20L2 > 100 µM | LXFL 529 > 100 µM | M14 > 100 µM | SR > 100 µM

NCc1ccccc1C1CSCSC1
inactive: A549 > 100 µM | CCRF-CEM > 100 µM | K562 > 100 µM | LXFL 529 > 100 µM | MOLT-4 > 100 µM | OVCAR-4 > 100 µM | SNB-78 > 100 µM

Reference: ChEMBL document CHEMBL1201862, “PubChem BioAssay data set” (2004)
